Results as given in patent publication US9707243B2, “Topical composition with vitamin D3” (priority 2014, dated 2017).

Test: Randomized control study of daily topical application in women with low vitamin D
Assay type: in vivo, human
Conditions: 3 months
Method: A study was carried out on 50 women with low vitamin D. The women were healthy and unmarried. Age, weight, height, and detailed medical history were recorded. Meticulous clinical examination was performed to rule out any diseases. A complete blood picture, including serum calcium, phosphorous, alkaline phosphatase, Parathormone and 25 Hydroxy-vitamin D (25OHD), was obtained. Two women had >30 ng/mL of 25OHD and were excluded from the study. The 25-Hydroxy Vitamin D3 level was measured in house by chemiluminescence immunoassay (CLIA), and 30 ng/mL was taken as normal, 21-29 ng/mL as insufficiency and 20 ng/mL as deficiency.
The participants were divided into two groups of 24 women each. All participants unequivocally agreed not to change their dietary habits and life style until the study was over. The group of women participating in the study were asked to apply the topical composition with Vitamin D3. Each gram of the composition delivered 5000 IU of vitamin D3. The second group used 1 gram of aloe vera gel. The participants had no knowledge to which group they belong. A second blood sample was taken at the end of 3 months, and the data was entered in the database and analyzed using a t-test to compare means between the two groups for all the parameters tested before and after topical use of VD and AVG. […]

## C=C1CC[C@H](O)C/C1=C/C=C1\CCC[C@]2(C)[C@@H]([C@H](C)CCCC(C)C)CC[C@@H]12 [Vitamin D3, cholecalciferol]
  safety of delivery through the dermal route: can safely be delivered through the dermal route
